Measurements taken from US20160058712A1, “3-HYDROXYPTEROSTILBENE AND THERAPEUTIC APPLICATIONS THEREOF” (priority 2014, published 2016).

What was measured:
HT-29 cells = assay: MTT cell viability assay, HT29; assay type: cell-based; details: Homo sapiens; HT-29, MTT, 24 h
Protocol: The human colon cancer cell lines COLO 205, HCT116 and HT29 were purchased from the American Type Culture Collection (Rockville, Md.). Cell lines were grown in RPMI1640 supplemented with 10% heat inactivated fetal bovine serum (GIBCO BRL, Grand Island, N.Y.), 100 units/mL of penicillin, 100 μg/mL of streptomycin), 2 mM L-glutamine (GIBCO BRL, Grand Island, N.Y.), and were kept at 37° C. in a humidified 5% CO2 incubator. Pterostilbene and 3-HPT were dissolved in dimethyl sulfoxide (DMSO, as final concentration of 0.05%). Cells were treated with 0.05% DMSO as vehicle control.
Cell viability was assayed by 3(4,5-dimethylthiazol-2-yl)-2,5-diphenyltetrazolium bromide (MTT). Briefly. COLO 205, HCT116 and HT29 cells were plated at a density of 2×10^2 cells/mL into 96 well plates. After overnight growth, cells were treated with a series of concentrations of pterostilbene or 3-hydroxypterostilbene for 24 h. The final concentrations of DMSO in the culture medium were <0.05%. At the end of treatment, 0.2% MTT was added and cells were incubated for a further 4 h. Cell viability was determined by scanning with an ELISA reader with a 570 nm filter.

COLO 205 cells = assay: Flow cytometry analysis of subG1 cell population (PI staining); assay type: cell-based, human; details: 24 h
Protocol: For subG1 cell population analysis, COLO 205 cells (2×10^5 cells/mL) were cultured in 12 well and treatment with various concentrations of pterostilbene or 3-hydroxypterostilbene for 24 h. The cells were then harvested, washed with PBS, re-suspended in 200 μL of PBS, and fixed in 800 μL of iced 100% ethanol at […]. After being left to stand overnight, the cell pellets were collected by centrifugation, re-suspended in 1 mL of hypotonic buffer (0.5% Triton X100 in PBS and 0.5 μg/mL RNase) with PI (50 μg/mL) and incubated at 37° C. in the dark for 30 min. Fluorescence emitted from the PIDNA complex was quantitated after excitation of the fluorescent dye by FACScan cytometry (Becton Dickinson, San Jose, Calif.). […] The results indicated a higher apoptotic potential of 3-hydroxypterostilbene for COLO 205 cells.

[1] = test system: PI3K/Akt, MAPKs and mTOR signaling in COLO 205 cells; assay: Western blotting of mTOR/p70S6K, PI3K/Akt and MAPKs signaling; assay type: cell-based, human; details: COLO 205, 50 μM, 24 hours
Protocol: Western blotting analysis was performed as follows. The total proteins of COLO 205 cells were extracted via addition of gold lysis buffer (50 mM TrisHCl, pH 7.4; 1 mM NaF; 150 mM NaCl; 1 mM EGTA; 1 mM phenylmethanesulfonyl fluoride; 1% NP40; and 10 μg/mL leupeptin) to the cell pellets on ice for 30 min, followed by centrifugation at 10,000×g for 30 min at 4° C. The total proteins were measured by BioRad Protein Assay (BioRad Laboratories, Munich, Germany). The samples (50 μg of protein) were mixed with 5× sample buffer containing 0.3 M TrisHCl (pH 6.8), 25% 2mercaptoethanol, 12% sodium dodecyl sulfate (SDS), 25 mM EDTA, 20% glycerol, and 0.1% bromophenol blue. The mixtures were boiled at 100° C. for 5 min and were subjected to 10% SDS polyacrylamide minigels at a constant current of 20 mA. Electrophoresis was then carried out on SDSpolyacrylaniide gels. […] The transferred proteins were visualized with an enhanced chemi-luminescence detection kit (ECL Amersham Pharmacia Biotech, Buckinghamshire, UK). The densities of the bands were quantified with a computer densitometer (AlphaImager™ 2200 System Alpha densitometer. Innotech Corporation, San Leandro, Calif.). […]
COLO 205 cells were treated with 50 μM pterostilbene or 3-hydroxypterostilbene for 24 hours. Cell lysates were prepared after 24 h treatment and the protein expression of LC3 were analyzed by Western blotting.

PC-3 cells = assay: Flow cytometry analysis of subG1 cell population in PC-3 cells; assay type: cell-based, human; details: PC-3, 0-20 μM, 48 hr
Protocol: PC-3 cells were cultured in serum-free RPMI containing 0, 2.5, 5, 10, or 20 μM of 3-HPT for 48 hr followed by flow cytometric analysis.

For `COc1cc(/C=C/c2ccc(O)c(O)c2)cc(OC)c1` [3-hydroxypterostilbene, 3,4-dihydroxy-3′,5′-dimethoxy-trans-stilbene], the IC50 (HT-29 cells) was 70.9 ± 1 µM, the “percentage of apoptotic COLO 205 cells (subG1)” value (COLO 205 cells; 5 μM) was 7.2% and the “percentage of apoptotic COLO 205 cells (subG1)” value (COLO 205 cells; 10 μM) was 9.3%. For the same compound, the “percentage of apoptotic COLO 205 cells (subG1)” value (COLO 205 cells; 25 μM) was 20.1%, the “percentage of apoptotic COLO 205 cells (subG1)” value (COLO 205 cells; 50 μM) was 36.3% and the “PI3K/Akt and MAPKs signalings, phosphorylation of mTOR” value [1] was “significantly down regulated”. For the same compound, the “percentage of apoptotic cells (subG1)” value (PC-3 cells) was “increasing percentage of apoptotic cells over increasing concentrations”.
